The values that follow are results of earlier work, collected in patent publication US20140018386A1, “LAQUINIMOD FORMULATIONS WITHOUT ALKALIZING AGENT” (Teva Pharmaceutical Industries, Ltd., priority 2012, published 2014).

The conditions of data set [1]: in vivo.
Data set [2] has as its system acute experimental autoimmune encephalomyelitis (aEAE) model. Conditions: in vivo.
The subject of data set [3] is relapsing MS.
Data set [4] relates to various experimental inflammatory/autoimmune animal models. The settings on record: EAE, DSS colitis, NOD mice, EAN, SLE, lupus nephritis, lupus arthritis, Crohn's Disease, Rheumatoid arthritis.

Regarding `CCN(C(=O)c1c(O)c2c(Cl)cccc2n(C)c1=O)c1ccccc1` [Laquinimod sodium], the Oral bioavailability entry in data set [1] was “high oral bioavailability”.

Take `CCN(C(=O)c1c(O)c2c(Cl)cccc2n(C)c1=O)c1ccccc1` [Laquinimod, N-ethyl-N-phenyl-1,2-dihydro-4-hydroxy-5-chloro-1-methyl-2-oxoquinoline-3-carboxamide]: the “Effect in the aEAE model” value in data set [2] is “effective”. In data set [3], the “Development of active MRI lesions” value is “can reduce development of active MRI lesions”. The Therapeutic effect result in data set [4] was “demonstrated therapeutic effect”.
